Columns and labels:
[1] = tested on: Influenza A virus; test: Antiviral activity against amantadine-sensitive influenza A virus A/WSN/33-M2-N31S (H1N1) infected in MDCK cells assessed as inhibition of virus-induced cytopathic effect incubated for 48 hrs by crystal violet/neutral red staining based assay; assay type: functional, organism-based
[2] = tested on: Oocyte; test: Inhibition of influenza A virus A/WSN/33-M2-N31S (H1N1) M2 transmembrane domain V28I mutant expressed in Xenopus laevis oocytes assessed as inhibition of channel current at 100 uM measured after 5 mins by two-electrode voltage clamp assay relative to control; assay type: cell-based
[3] = tested on: Oocyte; test: Inhibition of influenza A virus A/WSN/33-M2-N31S (H1N1) M2 transmembrane domain V28I mutant expressed in Xenopus laevis oocytes assessed as inhibition of channel current at 100 uM measured after 2 mins by two-electrode voltage clamp assay relative to control; assay type: cell-based

Structure (SMILES)	IC50 [1] [nM]	inhibition [2] [%]	inhibition [3] [%]
C[C@H](N)C12CC3CC(CC(C3)C1)C2	20	92	78
CC(C)(N)C12CC3CC(CC(C3)C1)C2	30	80	56
C[C@@H](N)C12CC3CC(CC(C3)C1)C2	40	90	71
CC(N)C12CC3CC(CC(C3)C1)C2 (racemic) [RIMANTADINE]	40	93	84
NC12CC3CC(CC(C3)C1)C2 [AMANTADINE]	480		
